Patent publication US20140243411A1 (priority 2011, published 2014)
Marks after values point to notes of the source that are not given here.

Test system: rats contaminated with ^241Am
Test: Radionuclide decorporation efficacy study in rats contaminated with 241Am (Example 10): excretion, tissue content, liver and skeleton burden
Format: in vivo, SD rats
Protocol: All animal studies were conducted according to a protocol approved by the University of North Carolina at Chapel Hill Institutional Animal Care and Use Committee (IACUC). Ten-week-old adult female SD rats weighing from 200 to 300 g were used in these studies (Charles River Labs, Raleigh, N.C.). Food and water were given ad libitum. The animal room was kept at a controlled temperature (23° C.) and light cycle (light exposure from 8 AM to 8 PM). For the duration of the study, the rats were housed in metabolic cages individually with daily urine and feces collection until euthanasia on Day 7.
To evaluate the efficacy of transdermal delivery of the C2E5 nonaqueous gel, a radionuclide decorporation efficacy study was conducted in rats contaminated with ^241Am. Adult female SD rats were anesthetized with 2-3% isoflurane. Dorsal skin between the cervical vertebrae and anterior thoracic vertebrae was clipped with caution before all animals were contaminated with [^241Am]-Americium nitrate solution (250 nCi, 0.1 mL) via an i.m. injection in anterior thigh muscle. The C2E5 nonaqueous gel was applied at dose of 1000 mg/kg using a cotton swap to a 6 cm^2 (2 cm×3 cm) area of the clipped dorsal region immediately after contamination. A jacket with plastic dorsal insert (VWR International) was placed on the rat to protect the gel application region. The mass of C2E5 gel applied was recorded for each animal to permit the actual dose determination. The animals were housed in metabolic cages individually after C2E5 treatment and were euthanized 7 days after contamination. Positive and negative controls included animals administered Ca-DTPA intravenously and animals without any treatment. The animals were observed once daily and their body weights recorded at pre-dose and prior to necropsy, Urine and feces were collected daily until euthanasia, when the liver, kidneys, both femurs and the muscle tissue from around the injection site were also collected. Cage washes were collected at the end of each experiment. As ˜35% of the decay of ^241Am is associated with photon emissions of 59.7 keV, ^241Am present in samples was quantified using a gamma counter (2470 Wizard 2, Perkin Elmer). The samples were counted for one minute using a 40-80 keV energy detection window and were background-corrected. Additionally, ^241Am activity was quantified in 2×0.1 mL aliquots of the dosing solution. For all samples, ^241Am content was expressed as a percentage of the initial dose.
where % ID represents the percent of injected dose. Where data for both femurs were available, an estimate of the total skeletal burden was made using the method of Volf with modification in which the counts in the contra-lateral femur were multiplied by 19 and added to the counts in the ipsi-lateral femur. The modification for the literature method was due to higher ^241Am content in ipsi-lateral femur as a result of i.m. injection in anterior thigh muscle.
Statistically significant differences among groups were determined using one-way ANOVA with Tukey's post hoc comparison. All measurements are expressed as mean±standard deviation (S.D.). The level of significance was set at p<0.05.

[1] = rats, seven days following a single dose, Ca-DTPA 14 mg/kg i.v., C2E5 1000 mg/kg transdermal
[2] = seven days after single dose, Ca-DTPA 14 mg/kg i.v., C2E5 1000 mg/kg transdermal gel

O=C([O-])CN(CCN(CC(=O)[O-])CC(=O)[O-])CCN(CC(=O)[O-])CC(=O)[O-].[Ca+2].[Na+].[Na+].[Na+] [Ca-DTPA, reference compound]
time of peak ^241Am excretion (14 mg/kg i.v.): ≤ 24 h
Skeleton Burden (% of ID) (contra-lateral femur × 19 + ipsi-lateral femur, rats, seven days following a single dose, Ca-DTPA 14 mg/kg i.v. (n = 3), C2E5 1000 mg/kg transdermal): 11.6 ± 2.2^b % of ID
Ipsi-lateral femur content of 241Am (rats, seven days following a single dose, Ca-DTPA 14 mg/kg i.v. (one animal excluded), C2E5 1000 mg/kg transdermal): 0.88 ± 0.18^c % of ID of ^241Am
% of Reduction over control (liver burden) [1]: 38.2%
% of Reduction over control (skeleton burden) [1]: 29.3%
Contra-lateral femur content of 241Am [1]: 0.57 ± 0.09 % of ID of ^241Am
Kidney content of 241Am [1]: 0.55 ± 0.03 % of ID of ^241Am
Liver Burden (% of ID) [1]: 10.2 ± 2.7 % of ID
Liver content of 241Am [1]: 10.2 ± 2.7 % of ID of ^241Am
Muscle-contra content of 241Am [1]: 0.0054 ± 0.0028 % of ID of ^241Am per gram of muscle-contra
Muscle-ipsi content of 241Am [1]: 40.0 ± 8.5 % of ID of ^241Am
Pelt at injection site content of 241Am [1]: 0.43 ± 0.24 % of ID of ^241Am
Total decorporation (% of ID of 241Am) [1]: 24.5 ± 3.5 % of ID of ^241Am
reduction of liver burden of ^241Am versus control group (seven days after single dose, Ca-DTPA 14 mg/kg i.v., C2E5 1000 mg/kg transdermal): 38.2%
% of Enhanced decorporation over control [2]: 255.3%
Cumulative excretion of ^241Am In feces [2]: 6.1 ± 1.1 % of ID
Cumulative excretion of ^241Am In urine [2]: 18.3 ±2.5 % of ID
Cumulative excretion of ^241Am Total [2]: 24.5 ± 3.5 % of ID
